This is an account of results in article doi:10.1101/2024.06.13.594677v1 (biorxiv, 2024).

The target of experiment [1] is T1, human 5-HT2A receptor (Homo sapiens, UniProt P28223). Set-up: species or system SH-SY5Y expressing human 5-HT2A. Particulars: agonist.
The target in experiment [2] is T2, rat 5-HT2A receptor (Rattus norvegicus, UniProt P14842). Set-up: species or system C6 glioma (endogenous rat 5-HT2A). The conditions noted are these: relative to 10 uM 5-HT; agonist.
Experiment [3] has as its target T1, human 5-HT2A receptor. Also noted: species or system SH-SY5Y expressing human 5-HT2A. Particulars: agonist. The source holds these as a separate data set.
Experiment [4] concerns the target T1, human 5-HT2A receptor. Also noted: species or system SH-SY5Y expressing human 5-HT2A. Particulars: agonist. This is another data set of the same source.
In experiment [5] the target is T2, rat 5-HT2A receptor.
In experiment [6] the target is T1, human 5-HT2A receptor. It counts as cell-based. Particulars: Gq/Ca2+ agonism; room temperature; HBSS with Ca2+.
Experiment [7] has as its target T2, rat 5-HT2A receptor. The experiment can be described thus: cytosolic Ca2+. It counts as cell-based. Particulars: Gq/Ca2+ agonism; room temperature; HBSS with Ca2+.
Experiment [8] concerns the target T1, human 5-HT2A receptor. It counts as cell-based. Particulars: beta-arrestin2 agonism; GRK2 and GRK3 co-expressed; DPBS with Ca2+; […] min.
Experiment [9] concerns the target T1, human 5-HT2A receptor. It counts as cell-based. The conditions noted are these: Gq/IP1 agonism; LiCl; […] °C, […] h.

A word on the EC50: it is the concentration needed to bring the measured effect to its halfway point. Lower therefore signals a more potent agent. The pEC50 is the negative decadic logarithm of the EC50, by convention in mol/L. Low readings indicate a high EC50, high ones a low EC50.

Where two headings read alike, the source gives them in different places.

T1 sequence (P28223 whole entry): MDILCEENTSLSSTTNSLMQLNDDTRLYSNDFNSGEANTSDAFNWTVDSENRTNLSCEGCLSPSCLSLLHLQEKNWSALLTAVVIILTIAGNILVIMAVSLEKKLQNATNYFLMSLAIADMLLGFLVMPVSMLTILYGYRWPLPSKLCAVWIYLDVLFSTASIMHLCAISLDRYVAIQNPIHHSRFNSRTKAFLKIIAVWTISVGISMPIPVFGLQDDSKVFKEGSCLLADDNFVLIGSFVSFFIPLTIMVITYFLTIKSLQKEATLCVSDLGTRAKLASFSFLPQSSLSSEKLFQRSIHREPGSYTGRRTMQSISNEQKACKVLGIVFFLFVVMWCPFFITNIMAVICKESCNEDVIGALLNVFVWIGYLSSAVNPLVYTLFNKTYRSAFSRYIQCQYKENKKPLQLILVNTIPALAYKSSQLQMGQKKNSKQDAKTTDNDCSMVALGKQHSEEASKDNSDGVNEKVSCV
T2 sequence (P14842 whole entry): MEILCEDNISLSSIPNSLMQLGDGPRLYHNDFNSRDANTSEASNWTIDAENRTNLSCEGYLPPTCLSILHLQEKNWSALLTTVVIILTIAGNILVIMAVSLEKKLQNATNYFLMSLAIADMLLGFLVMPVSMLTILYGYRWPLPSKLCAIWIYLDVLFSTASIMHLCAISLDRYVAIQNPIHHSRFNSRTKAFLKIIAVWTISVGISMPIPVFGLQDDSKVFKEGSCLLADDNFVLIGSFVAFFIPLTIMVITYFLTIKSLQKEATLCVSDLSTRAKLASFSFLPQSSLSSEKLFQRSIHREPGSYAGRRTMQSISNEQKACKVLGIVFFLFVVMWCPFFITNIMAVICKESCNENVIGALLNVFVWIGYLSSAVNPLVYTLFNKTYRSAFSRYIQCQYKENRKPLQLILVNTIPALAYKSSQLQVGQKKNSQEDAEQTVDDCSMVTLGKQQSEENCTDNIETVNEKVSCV

On to `COc1ccc2[nH]cc(CCN(C)C)c2c1` [5-MeO-DMT, 5-methoxy-N,N-dimethyltryptamine], for which the “β-arrestin2 Emax” value at human 5-HT2A receptor [1] was 0.70 ± 0.020. The “Ca2+ Emax (C6)” value at rat 5-HT2A receptor [2] came out at 0.36 ± 0.021%. Also, the “IP1 Emax” value on human 5-HT2A receptor [3] came to 0.93 ± 0.027. In addition, the “Ca2+ Emax” value at human 5-HT2A receptor [4] came out at 0.73 ± 0.033. At rat 5-HT2A receptor [5], this molecule gave a half-maximal effective concentration (EC50) of 240 nM.

As for `COc1cc(CCNCc2ccccc2OC)c(OC)cc1Br` [25B-NBOMe, 4-bromo-2,5-dimethoxy-N-(2-methoxybenzyl)phenethylamine], the pEC50 on human 5-HT2A receptor [6] is 7.84 ± 0.15; on rat 5-HT2A receptor [7] it was 8.10 ± 0.23; at human 5-HT2A receptor [8], 8.20 ± 0.079; at human 5-HT2A receptor [9] it was 8.95 ± 0.28.

For `COc1cc(CCNCc2ccccc2OC)c(OC)cc1Br` [25B-NBOMe], on human 5-HT2A receptor [1], the “β-arrestin2 Emax” value was found to be 0.88 ± 0.017. Moreover, at rat 5-HT2A receptor [2], the “Ca2+ Emax (C6)” value was 0.46 ± 0.027%. Moreover, the “IP1 Emax” value at human 5-HT2A receptor [3] is reported as 0.75 ± 0.040. Moreover, at human 5-HT2A receptor [4], the “Ca2+ Emax” value is on record as 0.57 ± 0.021.

With `COc1cc(CC(C)N)c(OC)cc1I` (stereo not shown) [DOI, 2,5-dimethoxy-4-iodoamphetamine], on human 5-HT2A receptor [1], the “β-arrestin2 Emax” value came to 0.73 ± 0.027. The “Ca2+ Emax (C6)” value on rat 5-HT2A receptor [2] is on record as 0.32 ± 0.017%. This molecule registered a pEC50 on rat 5-HT2A receptor [7] of 7.14 ± 0.16. In addition, the “IP1 Emax” value at human 5-HT2A receptor [3] is recorded as 1.12 ± 0.025. In addition, the “Ca2+ Emax” value on human 5-HT2A receptor [4] is given as 0.49 ± 0.019.

Consider `CCN(CC)C(=O)[C@@H]1C=C2c3cccc4[nH]cc(c34)C[C@H]2N(C)C1` [LSD], for which the “Ca2+ Emax (C6)” value at rat 5-HT2A receptor [2] turned out to be 0.19 ± 0.0092%. Moreover, at human 5-HT2A receptor [3], the “IP1 Emax” value is recorded as 0.78 ± 0.039. The “Ca2+ Emax” value on human 5-HT2A receptor [4] was 0.36 ± 0.027.

With `COc1cc(CCN)cc(OC)c1OC` [Mescaline, 3,4,5-trimethoxyphenethylamine], the “β-arrestin2 Emax” value on human 5-HT2A receptor [1] is 0.64 ± 0.059. In addition, the “Ca2+ Emax (C6)” value at rat 5-HT2A receptor [2] came out at 0.40 ± 0.025%. Further, the “IP1 Emax” value on human 5-HT2A receptor [3] was found to be 0.81 ± 0.050. Besides, on human 5-HT2A receptor [4], the “Ca2+ Emax” value came out at 0.47 ± 0.031. At rat 5-HT2A receptor [5], a half-maximal response (EC50) required 295 nM.

Take `COc1ccc2c3c([nH]c2c1)CCN(C)CC3` [TBG]: the “β-arrestin2 Emax” value at human 5-HT2A receptor [1] is given as 0.19 ± 0.026. Moreover, the “IP1 Emax” value on human 5-HT2A receptor [3] worked out at 0.35 ± 0.064. Also, the “Ca2+ Emax” value at human 5-HT2A receptor [4] was 0.13 ± 0.033.

In the case of `CN(C)CCc1c[nH]c2cccc(O)c12` [psilocin], the “β-arrestin2 Emax” value at human 5-HT2A receptor [1] came to 0.28 ± 0.019. Also, the “Ca2+ Emax (C6)” value at rat 5-HT2A receptor [2] is recorded as 0.12 ± 0.0079%. Also, the pEC50 on rat 5-HT2A receptor [7] is given as 7.15 ± 0.20. Besides, the “IP1 Emax” value at human 5-HT2A receptor [3] stood at 0.80 ± 0.030. Besides, the “Ca2+ Emax” value at human 5-HT2A receptor [4] is given as 0.40 ± 0.019.
